In general, pIC50 refers to the negative decadic logarithm of the IC50, by convention in mol/L. A high value points to a low IC50.

Structures are written as SMILES. pIC50: −log10 of the molar value.

The source of these data is patent publication US11173145B2, “Compounds useful as inhibitors of indoleamine 2,3-dioxygenase and/or tryptophan dioxygenase” (Board of Regents, The University of Texas System, priority 2017, dated 2021).

The target in the test is T1, IDO1 (Homo sapiens, UniProt P14902).
T1 construct: endogenous in cells; host or cells: HeLa cells (ATCC), IFNgamma-induced
T1 sequence (P14902 whole entry): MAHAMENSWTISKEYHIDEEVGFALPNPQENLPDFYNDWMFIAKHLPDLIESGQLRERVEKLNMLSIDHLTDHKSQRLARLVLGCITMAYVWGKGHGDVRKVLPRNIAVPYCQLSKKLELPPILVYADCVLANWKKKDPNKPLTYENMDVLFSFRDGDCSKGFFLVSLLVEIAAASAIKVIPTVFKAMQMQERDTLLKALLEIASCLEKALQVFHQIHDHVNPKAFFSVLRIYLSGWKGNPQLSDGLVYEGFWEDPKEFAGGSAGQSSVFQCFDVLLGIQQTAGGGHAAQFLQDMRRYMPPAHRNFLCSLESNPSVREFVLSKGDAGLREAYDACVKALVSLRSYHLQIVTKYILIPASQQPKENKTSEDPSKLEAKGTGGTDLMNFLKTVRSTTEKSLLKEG
As to the kind of experiment: IDO1 cell-based assay (HeLa cells, IFNgamma-induced, N-formylkynurenine/L-tryptophan by RFMS). The settings on record: 10 ng/mL IFNgamma, 24 hours. The method, then:
HeLa cells were obtained from the American Type Culture Collection (ATCC) and maintained in DMEM media containing 10% FBS. Cells (7,000/well) were seeded onto a 384 well plate in 50 μL of media and incubated at 37° C., 5% CO2 overnight. Cell media was aspirated, fresh media containing 10 ng/mL IFNgamma was added, and cells were incubated in absence or presence of various concentrations of test compound (final 0.5% DMSO) for 24 hours. Aliquots of the cell conditioned media were removed from the cell plate, and mixed with an equal volume of 200 mM ZnSO4 to precipitate media containing proteins. Two volumes of acetonitrile were added, mixed, and samples were then centrifuged at 2250G for 20 minutes at 4° C. Aliquots of the supernatant were diluted 1:10 in 0.1% formic acid containing 3 μM of deuterated Tryptophan as an internal standard.
Samples were analyzed via RFMS to quantify N-Formyl Kynurenine (AUC) and L-tryptophan (AUC). A C18 cartridge was used with mobile phases of 0.1% Formic Acid and 80% ACN/0.1% Formic Acid under isocratic conditions. Dose-response curves were analyzed using IC50 regression curve fitting (GeneData Screener). […] Cell viability was also assessed using the Cell Titer Glo Kit (Promega) following manufacturer recommendation.
As for `CCC(NC(=O)c1ccc(Cl)cc1)[C@H]1[C@@H]2C[C@@H](Oc3c(Cl)ccnc3C)C[C@@H]21` (stereo partly drawn) [Compound 92, 4-chloro-N-(1-((1R,3s,5S,6r)-3-((4-chloro-2-methylpyridin-3-yl)oxy)bicyclo[3.1.0]hexan-6-yl)propyl)benzamide], the pIC50 is above 6.70.

Compound `COc1ccc(C(=O)NC(C)[C@H]2[C@@H]3C[C@@H](Oc4ncnc5ccc(F)cc45)C[C@@H]32)cn1` (stereo partly drawn) [Compound 115, N-(1-((1R,3s,5S,6r)-3-((6-fluoroquinazolin-4-yl)oxy)bicyclo[3.1.0]hexan-6-yl)ethyl)-6-methoxynicotinamide] showed a pIC50 above 6.70. For `CC(NC(=O)c1ccc(Cl)cc1)[C@H]1[C@@H]2C[C@@H](Oc3ncnc4cc(F)ccc34)C[C@@H]21` (stereo partly drawn) [Compound 70, 4-chloro-N-(1-((1R,3s,5S,6r)-3-((7-fluoroquinazolin-4-yl)oxy)bicyclo[3.1.0]hexan-6-yl)ethyl)benzamide] the value was above 6.70. The compound `CCC(NC(=O)c1ccc(Cl)cc1)[C@H]1[C@@H]2C[C@@H](n3cnc4cc(Cl)ccc4c3=O)C[C@@H]21` (stereo partly drawn) [Compound 53, 4-chloro-N-(1-((1R,3s,5S,6r)-3-(7-chloro-4-oxoquinazolin-3(4H)-yl)bicyclo[3.1.0]hexan-6-yl)propyl)benzamide] showed a pIC50 above 6.70. For `CC(NC(=O)c1ccc(C#N)cc1)C1[C@H]2CC(Oc3ncnc4ccc(F)cc34)C[C@@H]12` (stereo partly drawn) [Compound 107, 4-cyano-N-(1-((1R,3s,5S,6r)-3-((6-fluoroquinazolin-4-yl)oxy)bicyclo[3.1.0]hexan-6-yl)ethyl)benzamide] the value was above 6.70; for `CCC(NC(=O)c1ccc(Cl)cc1)[C@H]1[C@@H]2C[C@@H](Oc3ncccc3F)C[C@@H]21` (stereo partly drawn) [Compound 39, 4-chloro-N-(1-((1R,3s,5S,6r)-3-((3-fluoropyridin-2-yl)oxy)bicyclo[3.1.0]hexan-6-yl)propyl)benzamide], above 6.70; for `CCC(NC(=O)c1ccc(Cl)cc1)[C@H]1[C@@H]2C[C@@H](Oc3ccc(F)cc3)C[C@@H]21` (stereo partly drawn) [Compound 14, 4-chloro-N-(1-((1R,3s,5S,6r)-3-(4-fluorophenoxy)bicyclo[3.1.0]hexan-6-yl)propyl)benzamide], above 6.70. Compound `O=C(NC[C@@H]1[C@H]2C[C@H](n3cnc4ccc(F)cc4c3=O)C[C@@H]12)c1ccc(Cl)cc1` [Compound 65, 4-chloro-N-(((1R,3s,5S,6r)-3-(6-fluoro-4-oxoquinazolin-3(4H)-yl)bicyclo[3.1.0]hexan-6-yl)methyl)benzamide] gave a pIC50 of 5.70 to 6.70.

Turning to `CCC(NC(=O)c1ccc(Cl)cc1)[C@H]1[C@@H]2C[C@@H](Oc3ncnc4cc(F)ccc34)C[C@@H]21` (stereo partly drawn) [Compound 35, 4-chloro-N-(1-((1R,3s,5S,6r)-3-((7-fluoroquinazolin-4-yl)oxy)bicyclo[3.1.0]hexan-6-yl)propyl)benzamide], the pIC50 is above 6.70.

Compound `CCC(NC(=O)c1ccc(Cl)cc1)[C@H]1[C@@H]2C[C@@H](O)C[C@@H]21` (single isomer, unassigned) [Compound 3] showed a pIC50 of 5.70 to 6.70. Compound `CC[C@@H](NC(=O)c1ccc(Cl)cc1)[C@H]1[C@@H]2C[C@@H](n3cc(C)cn3)C[C@@H]21` [Compound 330, 4-chloro-N-((R)-1-((1R,3S,5S,6r)-3-(4-methyl-1H-pyrazol-1-yl)bicyclo[3.1.0]hexan-6-yl)propyl)benzamide] had a pIC50 above 6.70. Compound `CC[C@@H](NC(=O)N1CCOCC1)[C@H]1[C@@H]2C[C@@H](n3cnc4cc(F)c(F)cc43)C[C@@H]21` [Compound 356, N-((R)-1-((1R,3S,5S,6r)-3-(5,6-difluoro-1H-benzo[d]imidazol-1-yl)bicyclo[3.1.0]hexan-6-yl)propyl)morpholine-4-carboxamide] showed a pIC50 of 5.30 to 5.70.

The compound `CCC(NC(=O)c1ccc(Cl)cc1)[C@H]1[C@@H]2C[C@@H](OC3CCOCC3)C[C@@H]21` (stereo partly drawn) [Compound 101, 4-chloro-N-(1-((1R,3s,5S,6r)-3-((tetrahydro-2H-pyran-4-yl)oxy)bicyclo[3.1.0]hexan-6-yl)propyl)benzamide] showed a pIC50 of 5.70 to 6.70. The value for `CCC(NC(=O)c1ccc(Cl)cc1)[C@H]1[C@@H]2C[C@@H](n3ncc4ccncc43)C[C@@H]21` (stereo partly drawn) [Compound 174, N-(1-((1R,3s,5S,6r)-3-(1H-pyrazolo[3,4-c]pyridin-1-yl)bicyclo[3.1.0]hexan-6-yl)propyl)-4-chlorobenzamide] was above 6.70. The value for `CCC(NC(=O)c1ccc(Cl)cc1)[C@H]1[C@@H]2C[C@@H](N3CCOCC3)C[C@@H]21` (stereo partly drawn) [Compound 73, 4-chloro-N-(1-((1R,3s,5S,6r)-3-morpholinobicyclo[3.1.0]hexan-6-yl)propyl)benzamide] was 5.30 to 5.70; that for `CC[C@@H](NC(=O)c1ccc(Cl)cc1)[C@H]1[C@@H]2C[C@@H](Nc3ccccc3C#N)C[C@@H]21` [Compound 331, 4-chloro-N—((R)-1-((1R,3S,5S, 6r)-3-((2-cyanophenyl)amino)bicyclo[3.1.0]hexan-6-yl)propyl)benzamide] was above 6.70; that for `N#Cc1ccc(C(=O)NC[C@@H]2[C@H]3C[C@H](n4cnc5cc(F)c(F)cc54)C[C@@H]23)cc1` [Compound 302, 4-cyano-N-(((1R,3s,5S,6r)-3-(5,6-difluoro-1H-benzo[d]imidazol-1-yl)bicyclo[3.1.0]hexan-6-yl)methyl)benzamide] was above 6.70. For `CCC(NC(=O)c1ccc(Cl)cc1)[C@H]1[C@@H]2C[C@@H](n3cnc4cc(F)ccc4c3=O)C[C@@H]21` (stereo partly drawn) [Compound 34, 4-chloro-N-(1-((1R,3s,5S,6r)-3-(7-fluoro-4-oxoquinazolin-3(4H)-yl)bicyclo[3.1.0]hexan-6-yl)propyl)benzamide], the pIC50 is above 6.70. The value for `O=C(Cc1ccc(Cl)cc1)NC1[C@H]2CC(Oc3cnnc4ccccc34)C[C@@H]12` (stereo partly drawn) [Compound 79, 2-(4-chlorophenyl)-N-((1R,3s,5S,6r)-3-(cinnolin-4-yloxy)bicyclo[3.1.0]hexan-6-yl)acetamide] was 5.70 to 6.70; that for `O=C(NC[C@H]1[C@H]2C[C@H](Oc3cc(C(F)(F)F)nc4ccc(F)cc34)C[C@@H]12)c1ccc(Cl)cc1` [Compound 24, 4-chloro-N-(((1R,3s,5S,6s)-3-((6-fluoro-2-(trifluoromethyl)quinolin-4-yl)oxy)bicyclo[3.1.0]hexan-6-yl)methyl)benzamide] was 5.70 to 6.70. The value for `CCC(NC(=O)c1ccc(C#N)cn1)C1C2CC(Oc3cnnc4ccccc34)CC21` [Compound 82, N-(1-((1R,3s,5S,6r)-3-(cinnolin-4-yloxy)bicyclo[3.1.0]hexan-6-yl)propyl)-5-cyanopicolinamide] was 5.70 to 6.70; that for `CCC(NC(=O)c1ccc(Cl)cc1)[C@H]1[C@@H]2C[C@@H](Oc3ncccc3C)C[C@@H]21` (stereo partly drawn) [Compound 41, 4-chloro-N-(1-((1R,3s,5S,6r)-3-((3-methylpyridin-2-yl)oxy)bicyclo[3.1.0]hexan-6-yl)propyl)benzamide] was above 6.70; that for `CC[C@@H](NC(=O)c1ccc(Cl)cc1)[C@H]1[C@@H]2C[C@H](c3cncc(C4CC4)c3)C[C@@H]21` [Compound 303, 4-chloro-N-((R)-1-((1R,3R,5S,6r)-3-(5-cyclopropylpyridin-3-yl)bicyclo[3.1.0]hexan-6-yl)propyl)benzamide] was above 6.70. For the compound `CC[C@@H](NC(=O)c1ccc(C#N)cc1)[C@H]1[C@@H]2C[C@@H](n3c(C)nc4ccc(Cl)cc43)C[C@@H]21` [Compound 294, N-((R)-1-((1R,3S,5S,6r)-3-(6-chloro-2-methyl-1H-benzo[d]imidazol-1-yl)bicyclo[3.1.0]hexan-6-yl)propyl)-4-cyanobenzamide], the negative-log IC50 (pIC50) is above 6.70. The value for `CC[C@@H](NC(=O)c1ccc(C#N)cc1)[C@H]1[C@@H]2C[C@@H](c3ccnc4ccc(F)cc34)C[C@@H]21` [Compound 277, 4-cyano-N-((R)-1-((1R,3S,5S,6r)-3-(6-fluoroquinolin-4-yl)bicyclo[3.1.0]hexan-6-yl)propyl)benzamide] was above 6.70; that for `C[C@@H](NC(=O)c1ccc(C#N)cc1)[C@H]1[C@@H]2C[C@H](O)C[C@@H]21` [Compound 296, 4-cyano-N-((R)-1-((1R,3R,5S,6r)-3-hydroxybicyclo[3.1.0]hexan-6-yl)ethyl)benzamide] was below 5.30; that for `CC(NC(=O)c1ccc(Cl)cc1)[C@H]1[C@@H]2C[C@@H](Oc3ncnc4ccc(F)cc34)C[C@@H]21` (stereo partly drawn) [Compound 64, 4-chloro-N-(1-((1R,3s,5S,6r)-3-((6-fluoroquinazolin-4-yl)oxy)bicyclo[3.1.0]hexan-6-yl)ethyl)benzamide] was above 6.70.

`CC[C@@H](NC(=O)c1ccc(Cl)cc1)[C@H]1[C@@H]2C[C@@H](Nc3ncnc4ccc(C)cc34)C[C@@H]21` [Compound 338, 4-chloro-N-((R)-1-((1R,3S,5S,6r)-3-((6-methylquinazolin-4-yl)amino)bicyclo[3.1.0]hexan-6-yl)propyl)benzamide]: the pIC50 is above 6.70. For `CC[C@@H](NC(=O)c1ccc(Cl)cc1)[C@H]1[C@@H]2C[C@@H](n3cc(I)cn3)C[C@@H]21` [Compound 304, 4-chloro-N-((R)-1-((1R,3S,5S,6r)-3-(4-iodo-1H-pyrazol-1-yl)bicyclo[3.1.0]hexan-6-yl)propyl)benzamide] the value was above 6.70.
